From US12492186B2, “Bicyclic heterocyclic compounds useful as IRAK4 inhibitors” (BRISTOL-MYERS SQUIBB COMPANY, priority 2019, dated 2025)

Tests used:
Human whole blood = experiment: IRAK4 Whole Blood Assay (IL-6 levels after stimulation with TLR2 agonist lipoteichoic acid); assay type: cell-based; settings: 10 μg/mL lipoteichoic acid, 5 hours
Description: Human whole blood containing the anti-coagulant ACD-A was plated in 384-well plate (25 μL/well) and incubated with compounds for 60 minutes at 37° C. in a 5% CO2 incubator. The blood was stimulated with a TLR2 agonist, 10 μg/mL final concentration of lipoteichoic acid (Invivogen, San Diego, CA) in 25 μL RPMI (Gibco) for 5 hours in a 5% CO2 incubator. At the end of the incubation, plates were centrifuged at 2300 rpm for 5 minutes. Supernatants were harvested and analyzed for IL-6 levels by Flow Cytometry beads assay (BD Biosciences, San Jose, CA).

IRAK4 = IRAK4 (Homo sapiens (Human), UniProt Q9NWZ3); experiment: IRAK4 Inhibition Assay; assay type: biochemical; settings: ATP 500 μM; IRAK4 0.6 nM; 60 min room temperature; Caliper LABCHIP 3000
Sequence of IRAK4 (Q9NWZ3 whole entry, species assumed): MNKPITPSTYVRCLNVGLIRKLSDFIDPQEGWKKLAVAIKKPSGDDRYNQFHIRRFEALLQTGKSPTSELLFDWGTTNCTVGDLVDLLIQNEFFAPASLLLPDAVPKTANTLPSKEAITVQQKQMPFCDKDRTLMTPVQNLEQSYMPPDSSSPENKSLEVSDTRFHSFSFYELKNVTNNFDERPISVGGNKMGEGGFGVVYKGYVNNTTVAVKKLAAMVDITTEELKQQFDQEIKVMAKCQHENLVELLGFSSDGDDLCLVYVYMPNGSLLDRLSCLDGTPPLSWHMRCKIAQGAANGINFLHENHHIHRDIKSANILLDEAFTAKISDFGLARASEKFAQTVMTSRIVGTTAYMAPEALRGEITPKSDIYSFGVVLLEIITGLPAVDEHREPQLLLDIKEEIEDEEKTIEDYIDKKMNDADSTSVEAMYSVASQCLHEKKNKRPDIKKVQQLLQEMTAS

EC50 (Human whole blood) [nM] | IC50 (IRAK4) [nM] | SMILES
6040 | 8.7 | O=C(NCCC1CCS(=O)(=O)CC1)c1cnc2ccc(-c3cn[nH]c3)cc2c1NC1CC1 [Example 120, 4-(cyclopropylamino)-N-(2-(1,1-dioxidotetrahydro-2H-thiopyran-4-yl)ethyl)-6-(1H-pyrazol-4-yl)quinoline-3-carboxamide]
686 | 2.7 | CC1(Nc2c(C(=O)NC[C@@H](F)C(C)(C)O)cnc3ccc(-c4cn[nH]c4)cc23)CC1 [Example 121, (R)—N-(2-fluoro-3-hydroxy-3-methylbutyl)-4-((1-methylcyclopropyl)amino)-6-(1H-pyrazol-4-yl)quinoline-3-carboxamide]
1270 | 2.5 | CC1(Nc2c(C(=O)NCCc3cccnc3)cnc3ccc(-c4cn[nH]c4)cc23)CC1 [Example 122, 4-((1-methylcyclopropyl)amino)-6-(1H-pyrazol-4-yl)-N-(2-(pyridin-3-yl)ethyl)quinoline-3-carboxamide]
606 | 4.1 | CC1(Nc2c(C(=O)NCC3CCS(=O)(=O)C3)cnc3ccc(-c4cn[nH]c4)cc23)CC1 (stereo not drawn) [Example 123, N-((1,1-dioxidotetrahydrothiophen-3-yl)methyl)-4-((1-methylcyclopropyl)amino)-6-(1H-pyrazol-4-yl)quinoline-3-carboxamide]
1170 | 6.7 | CC(=O)N1CCC(c2cc(-c3cnc4ccc(-c5cn[nH]c5)cc4c3NC(C)C)on2)CC1 [Example 127, 1-(4-(5-(4-(isopropylamino)-6-(1H-pyrazol-4-yl)quinolin-3-yl)isoxazol-3-yl)piperidin-1-yl)ethan-1-one]
1430 | 1.2 | CC(C)CCn1cc(-c2cnc3ccc(-c4cn[nH]c4)cc3c2NC(C)C)nn1 [Example 129, 3-(1-isopentyl-1H-1,2,3-triazol-4-yl)-N-isopropyl-6-(1H-pyrazol-4-yl)quinolin-4-amine]
1890 | 6 | CC(C)Nc1c(-c2cn(CC3CC3)nn2)cnc2ccc(-c3cn[nH]c3)cc12 [Example 130, 3-(1-(cyclopropylmethyl)-1H-1,2,3-triazol-4-yl)-N-isopropyl-6-(1H-pyrazol-4-yl) quinolin-4-amine]
713 | 7.8 | CC(C)Nc1c(-c2cn(CCCO)nn2)cnc2ccc(-c3cn[nH]c3)cc12 [Example 131, 3-(4-(4-(isopropylamino)-6-(1H-pyrazol-4-yl)quinolin-3-yl)-1H-1,2,3-triazol-1-yl)propan-1-ol]
799 | 2.9 | CC(=O)N1CC(n2cc(-c3cnc4ccc(-c5cn[nH]c5)cc4c3NC(C)C)nn2)C1 [Example 132, 1-(3-(4-(4-(isopropylamino)-6-(1H-pyrazol-4-yl)quinolin-3-yl)-1H-1,2,3-triazol-1-yl)azetidin-1-yl)ethan-1-one]
779 | 2.9 | CC(C)Nc1c(-c2cn(C3CCNCC3)nn2)cnc2ccc(-c3cn[nH]c3)cc12 [Example 133, N-isopropyl-3-(1-(piperidin-4-yl)-1H-1,2,3-triazol-4-yl)-6-(1H-pyrazol-4-yl)quinolin-4-amine]
981 | 6.3 | CC(C)Nc1c(-c2cn(C3CN(CC(F)F)C3)nn2)cnc2ccc(-c3cn[nH]c3)cc12 [Example 134, 3-(1-(1-(2,2-difluoroethyl)azetidin-3-yl)-1H-1,2,3-triazol-4-yl)-N-isopropyl-6-(1H-pyrazol-4-yl)quinolin-4-amine]
603 | 3.1 | CC(=O)N1CCC(n2cc(-c3cnc4ccc(-c5cn[nH]c5)cc4c3NC(C)C)nn2)CC1 [Example 135, 1-(4-(4-(4-(isopropylamino)-6-(1H-pyrazol-4-yl)quinolin-3-yl)-1H-1,2,3-triazol-1-yl)piperidin-1-yl)ethan-1-one]
5090 | 11.4 | CC(C)Nc1c(-c2cn(C3CCN(C)C3=O)nn2)cnc2ccc(-c3cn[nH]c3)cc12 (stereo not drawn) [Example 136, 3-(4-(4-(isopropylamino)-6-(1H-pyrazol-4-yl)quinolin-3-yl)-1H-1,2,3-triazol-1-yl)-1-methylpyrrolidin-2-one]
58 | 2.7 | CC(C)Nc1c(C(=O)NCCC(C)(C)O)cnc2ccc(-c3cn[nH]c3)nc12 [Example 138, N-(3-hydroxy-3-methylbutyl)-4-(isopropylamino)-6-(1H-pyrazol-4-yl)-1,5-naphthyridine-3-carboxamide]
272 | 2.7 | CC(C)CCNC(=O)c1cnc2ccc(-c3cn[nH]c3)nc2c1NC(C)C [Example 139, N-isopentyl-4-(isopropylamino)-6-(1H-pyrazol-4-yl)-1,5-naphthyridine-3-carboxamide]
137 | 4.8 | CC(O)CCNC(=O)c1cnc2ccc(-c3cn[nH]c3)nc2c1NC(C)C (stereo not drawn) [Example 140, N-(3-hydroxybutyl)-4-(isopropylamino)-6-(1H-pyrazol-4-yl)-1,5-naphthyridine-3-carboxamide]
40 | 1.4 | CC(C)Nc1c(C(=O)NC[C@@H](F)C(C)(C)O)cnc2ccc(-c3cn[nH]c3)nc12 [Example 141, (R)—N-(2-fluoro-3-hydroxy-3-methylbutyl)-4-(isopropylamino)-6-(1H-pyrazol-4-yl)-1,5-naphthyridine-3-carboxamide]
138 | 6.4 | CC(C)Nc1c(C(=O)NCCC(F)(F)F)cnc2ccc(-c3cn[nH]c3)nc12 [Example 142, 4-(isopropylamino)-6-(1H-pyrazol-4-yl)-N-(3,3,3-trifluoropropyl)-1,5-naphthyridine-3-carboxamide]
1380 | 7.2 | CC(C)Nc1c(C(=O)N[C@H]2C[C@H](O)C2)cnc2ccc(-c3cn[nH]c3)nc12 [Example 143, N-((1r,3r)-3-hydroxycyclobutyl)-4-(isopropylamino)-6-(1H-pyrazol-4-yl)-1,5-naphthyridine-3-carboxamide]
285 | 4 | CC(C)Nc1c(C(=O)NCCN2CCOCC2)cnc2ccc(-c3cn[nH]c3)nc12 [Example 144, 4-(isopropylamino)-N-(2-morpholinoethyl)-6-(1H-pyrazol-4-yl)-1,5-naphthyridine-3-carboxamide]
5420 | 16.4 | CC(C)Nc1c(C(=O)NCCC2CC2)cnc2ccc(-c3cncs3)nc12 [Example 148, N-(2-cyclopropylethyl)-4-(isopropylamino)-6-(thiazol-5-yl)-1,5-naphthyridine-3-carboxamide]
175 | 2.7 | CC(C)Nc1c(C(=O)NCCC2CC2)cnc2ccc(-c3cn[nH]c3)nc12 [Example 149, N-(2-cyclopropylethyl)-4-(isopropylamino)-6-(1H-pyrazol-4-yl)-1,5-naphthyridine-3-carboxamide]
153 | 5.4 | CC(C)Nc1c(C(=O)NCCC(C)(C)N)cnc2ccc(-c3cn[nH]c3)nc12 [Example 150, N-(3-amino-3-methylbutyl)-4-(isopropylamino)-6-(1H-pyrazol-4-yl)-1,5-naphthyridine-3-carboxamide]
502 | 3.3 | CC(=O)N[C@H]1CC[C@H](NC(=O)c2cnc3ccc(-c4cn[nH]c4)nc3c2NC(C)C)CC1 [Example 155, N-((1r,4r)-4-acetamidocyclohexyl)-4-(isopropylamino)-6-(1H-pyrazol-4-yl)-1,5-naphthyridine-3-carboxamide]
